We go through 2 compounds from ChEMBL document CHEMBL3739316, “Novel orally active inhibitors of β-1,3-glucan synthesis derived from enfumafungin” (Bioorg Med Chem Lett, 2015).

Converted amounts (≈) assume the structure as drawn.

The target in data set [1] is T1, Beta-1,3-glucan synthase (Candida albicans, UniProt O13383).
T1 sequence (O13383 whole entry): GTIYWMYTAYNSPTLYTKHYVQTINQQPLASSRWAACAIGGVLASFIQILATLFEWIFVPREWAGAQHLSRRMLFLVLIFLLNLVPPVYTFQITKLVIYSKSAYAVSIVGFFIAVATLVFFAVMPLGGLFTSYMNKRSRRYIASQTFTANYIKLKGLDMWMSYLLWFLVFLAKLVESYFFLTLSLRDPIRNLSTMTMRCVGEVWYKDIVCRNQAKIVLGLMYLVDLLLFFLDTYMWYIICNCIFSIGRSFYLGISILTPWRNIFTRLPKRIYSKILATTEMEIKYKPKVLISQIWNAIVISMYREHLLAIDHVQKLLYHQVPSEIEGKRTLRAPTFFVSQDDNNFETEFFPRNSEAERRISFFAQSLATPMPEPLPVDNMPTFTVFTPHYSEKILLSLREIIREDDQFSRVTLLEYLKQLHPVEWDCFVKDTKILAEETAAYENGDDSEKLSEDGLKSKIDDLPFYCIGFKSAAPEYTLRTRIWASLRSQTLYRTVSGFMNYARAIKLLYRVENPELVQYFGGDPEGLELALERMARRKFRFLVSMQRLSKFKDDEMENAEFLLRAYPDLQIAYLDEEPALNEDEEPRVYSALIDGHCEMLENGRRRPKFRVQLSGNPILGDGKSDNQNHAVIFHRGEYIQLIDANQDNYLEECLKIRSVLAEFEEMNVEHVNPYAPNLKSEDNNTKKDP
Nature of the data set: Displacement of UDP-[3H]glucose from beta-1,3-glucan synthase in Candida albicans MY1055 microsomal membranes incubated for 2 hrs.

Data set [2] relates to Candida albicans. Nature of the data set: Antifungal activity against Candida albicans MY1055 after 24 hrs by liquid microdilution assay. In kind it is functional. The settings on record: MY1055, 24 h. In general terms: In broth dilution the organism is exposed to a series of concentrations in liquid medium.
Data set [3] has as its system Aspergillus fumigatus. Nature of the data set: Antifungal activity against Aspergillus fumigatus MF5668 after 24 hrs by liquid microdilution assay. Format: functional. The settings on record: MF5668, 24 h, read-out: MEC.
In data set [4] the test system is Candida albicans. Nature of the data set: Antifungal activity against Candida albicans MY1055 after 24 hrs by liquid microdilution assay in presence of human serum. In kind it is functional. The following applies: MY1055, 24 h.
The test system of data set [5] is Mus musculus. Nature of the data set: Dose normalized AUC in orally dosed mouse. The following applies: in vivo, po. In kind it is ADME, organism-based.
Data set [6] in a line: Oral bioavailability in mouse. Format: ADME, organism-based. The settings on record: in vivo.
The subject of data set [7] is Candida albicans. Description: Antifungal activity against Candida albicans MY1055 in DBA/2 mouse candidiasis model assessed as change in CFU per gram of kidney at 25 mg/kg, ip bid after 4 days by Target Organ Kidney Assay relative to sham treated control. In kind it is functional.
The test system of data set [8] is Candida albicans. Description: Antifungal activity against Candida albicans MY1055 in DBA/2 mouse candidiasis model assessed as change in CFU per gram of kidney at 12.5 mg/kg, ip bid after 4 days by Target Organ Kidney Assay relative to sham treated control. In kind it is functional.
Data set [9] has as its system Candida albicans. Nature of the data set: Antifungal activity against Candida albicans MY1055 in DBA/2 mouse candidiasis model assessed as change in CFU per gram of kidney at 6.25 mg/kg, ip bid after 4 days by Target Organ Kidney Assay relative to sham treated control. Format: functional.
For data set [10], the system named is Candida albicans. Description: Antifungal activity against Candida albicans MY1055 in DBA/2 mouse candidiasis model assessed as change in CFU per gram of kidney at 25 mg/kg, po bid after 4 days by Target Organ Kidney Assay relative to sham treated control. Format: functional.
The subject of data set [11] is Candida albicans. Description: Antifungal activity against Candida albicans MY1055 in DBA/2 mouse candidiasis model assessed as change in CFU per gram of kidney at 12.5 mg/kg, po bid after 4 days by Target Organ Kidney Assay relative to sham treated control. In kind it is functional.
The subject of data set [12] is Candida albicans. Nature of the data set: Antifungal activity against Candida albicans MY1055 in DBA/2 mouse candidiasis model assessed as change in CFU per gram of kidney at 6.25 mg/kg, po bid after 4 days by Target Organ Kidney Assay relative to sham treated control. In kind it is functional.
Data set [13] concerns Candida albicans. Nature of the data set: Antifungal activity against Candida albicans MY1055 in DBA/2 mouse candidiasis model assessed as change in CFU per gram of kidney at 12.5 mg/kg, ip bid after 7 days by Target Organ Kidney Assay relative to sham treated control. Format: functional.
Data set [14] relates to Candida albicans. Nature of the data set: Antifungal activity against Candida albicans MY1055 in DBA/2 mouse candidiasis model assessed as change in CFU per gram of kidney at 25 mg/kg, po bid after 7 days by Target Organ Kidney Assay relative to sham treated control. Format: functional.
For data set [15], the system named is Candida albicans. Nature of the data set: Antifungal activity against Candida albicans MY1055 in DBA/2 mouse candidiasis model assessed as change in CFU per gram of kidney at 12.5 mg/kg, po bid after 7 days by Target Organ Kidney Assay relative to sham treated control. In kind it is functional.
The test system of data set [16] is Candida albicans. Nature of the data set: Antifungal activity against Candida albicans MY1055 in DBA/2 mouse candidiasis model assessed as change in CFU per gram of kidney at 6.25 mg/kg, po bid after 7 days by Target Organ Kidney Assay relative to sham treated control. In kind it is functional.
Data set [17] has as its system Candida albicans. Nature of the data set: Antifungal activity against Candida albicans MY1055 in DBA/2N mouse candidiasis model assessed as mouse survival at 12.5 mg/kg, ip bid after 7 days by Target Organ Kidney Assay relative to sham treated control. The following applies: 168 h. Format: functional.
For data set [18], the system named is Candida albicans. Nature of the data set: Antifungal activity against Candida albicans MY1055 in DBA/2N mouse candidiasis model assessed as mouse survival at 25 mg/kg, po bid after 7 days by Target Organ Kidney Assay relative to sham treated control. The following applies: 168 h. Format: functional.
For data set [19], the system named is Candida albicans. Nature of the data set: Antifungal activity against Candida albicans MY1055 in DBA/2N mouse candidiasis model assessed as mouse survival at 12.5 mg/kg, po bid after 7 days by Target Organ Kidney Assay relative to sham treated control. Format: functional. The following applies: 168 h.
Data set [20] has as its system Candida albicans. Nature of the data set: Antifungal activity against Candida albicans MY1055 in DBA/2N mouse candidiasis model assessed as mouse survival at 6.25 mg/kg, po bid after 4 days by Target Organ Kidney Assay relative to sham treated control. Format: functional. The settings on record: 96 h.
In data set [21] the test system is Candida albicans. Nature of the data set: Antifungal activity against Candida albicans MY1055 in DBA/2N mouse candidiasis model assessed as reduction of fungal burden after 7 days. The following applies: MY1055, 168 h. Format: functional.
Data set [22] is described as follows: AUC (0 to 24 hrs) in DBA/2J mouse at 10 mg/kg, po. In kind it is ADME, organism-based. On the set-up: dose 10 mg/kg, time < 24 hr, route oral. The following applies: in vivo.
The test system of data set [23] is Mus musculus. Nature of the data set: AUC (0 to 24 hrs) in DBA/2J mouse assessed as metabolite 13e at 10 mg/kg, po. On the set-up: dose 10 mg/kg, time < 24 hr, route oral. The following applies: in vivo. Format: ADME, organism-based.
For data set [24], the system named is Mus musculus. Nature of the data set: AUC (0 to 24 hrs) in DBA/2J mouse assessed as metabolite 13c at 10 mg/kg, po. On the set-up: dose 10 mg/kg, time < 24 hr, route oral. The following applies: in vivo. In kind it is ADME, organism-based.
In data set [25] the test system is Mus musculus. Nature of the data set: AUC (0 to 24 hrs) in DBA/2J mouse assessed as total metabolites at 10 mg/kg, po. Format: ADME, organism-based. The following applies: in vivo.

For orientation: IC50 means the midpoint of a concentration-inhibition curve. High values mean lower potency, low ones higher potency. The MIC is the smallest concentration in the dilution series that meets the test's criterion for growth inhibition. A word on the bioavailability: it is the share of a dose that reaches the circulation, judged against a reference dose that is usually intravenous. Read a low bioavailability as poor availability. The AUC(0-t) is exposure summed from dosing to a finite time, without extrapolation to infinity. Low readings indicate less exposure, high ones more exposure. The AUC is concentration integrated over time.

In turn, `CC(=O)O[C@@H]1C[C@@]23COCC(C)([C@H]1OCCN)[C@@H]2CC[C@H]1C3=CC[C@@]2(C)[C@H](C(=O)O)[C@@](C)([C@H](C)C(C)C)CC[C@]12C` gave an IC50 in data set [1] of 0.0819 µM. The figures for the MIC in data set [2] and in [4] were 1 mg/L (≈ 1.74 µM) and 32 mg/L, respectively. Further, the minimal effective concentration in data set [3] was less than 0.03 µg/mL. For the same compound, the AUC/dose in data set [5] came out at 0.54 µM·kg·h/mg. The compound also registered a bioavailability in data set [6] of 24%. Further, the Activity is given as -0.7 deltalog10CFU in data set [7], -0.4 deltalog10CFU in [8] and -0.3 deltalog10CFU in data set [9].
For the compound `CC(C)[C@@H](C)[C@@]1(C)CC[C@]2(C)[C@H]3CC[C@H]4C5(C)COC[C@@]4(C[C@@H](n4nnc(N)n4)[C@@H]5OC[C@@](C)(C(C)C)N(C)C)C3=CC[C@@]2(C)[C@@H]1C(=O)O`, the IC50 in data set [1] was 0.0132 µM. The MIC in data set [2] was 0.25 mg/L (≈ 0.366 µM); in [4] it was 8 mg/L. Also, the minimal effective concentration in [3] is less than 0.03 µg/mL. For the same compound, the AUC/dose in data set [5] was 0.15 µM·kg·h/mg. In data set [6], the bioavailability stood at 17%. Moreover, the Activity in data set [10] is recorded as -2.6 deltalog10CFU; in [11], -2.5 deltalog10CFU; in data set [12], -0.7 deltalog10CFU; in data set [13] it was -3.36 deltalog10CFU; in data set [14] it was -2.75 deltalog10CFU; in data set [15], -2.38 deltalog10CFU. Besides, in data set [16], the Activity is recorded as -1.19 deltalog10CFU. Also, the survival at 12.5 mg/kg in data set [17] and in [19] was 100% each time. In data set [18], the survival at 25 mg/kg worked out at 100%. Also, the survival at 6.25 mg/kg in data set [20] is 40%. Moreover, the ED99 in data set [21] turned out to be 9 mg/kg. Further, the exposure AUC(0-t) at 24 h in data set [22] worked out at 1270 nM·h. In addition, the AUC in data set [23] was 1230 nM·h; in data set [24], 110 nM·h. Moreover, the Drug uptake in data set [25] came to 51.3%.
